Entries after “also recorded” stand apart in the source; their conditions may differ.
Assays:
[1] = system: TNF-α; assay: In vitro inhibition of TNF-α (LPS-stimulated J774 macrophages, ELISA of supernatant); assay type: cell-based; settings: mice macrophage cell line J774, 1 μg/mL LPS, compound 10 μM, 5 hours
Experimental: The horizontal axis indicates the compound numbers corresponding to the examples, and the vertical axis indicates the inhibition rate (IR) of TNF-α. The concentration used in the assays is 10 μM.
In vitro inhibition of TNF-α: inoculate 48 well plates with mice macrophase cell line J774, at 1×10^5 cells/well. Incubate in DMEM containing 10% FBS under 6% CO2 for 12 hours. Use DMEM medium containing 1 μg/mL LPS to dilute the small molecule compounds to a final concentration of 10^−5 mol/L and use that to replace the original culture medium. The incubation is continued for another 5 hours. Collect the supernatants and determine TNF-α using ELISA. In this experiment, compound SB 202190 (4-(4-fluorophenyl)-2-(4-hydroxyphenyl)-5-(4-pyridyl)-1H-imidazole, CAS 152121-30-7, was purchased from Sigma. This compound is a specific inhibitor of p38 MAPK. Through inhibition of p38 phosphorylation, it inhibits the production of TNF-α) is used as a positive control.

[2] = system: TNF-α; assay: LPS-induced endotoxin shock model, plasma TNF-alpha by ELISA; assay type: in vivo; settings: male C57BL/6 mice, 25, 50, 100 mg/Kg injected peritoneally 1 hour before LPS 2.5 mg/Kg; blood 1.5 hours after LPS
Description: The horizontal axis indicates the compound numbers corresponding to the examples or the amount of Compound 1 used in mg/Kg of mouse body weight. The vertical axis indicates the concentrations of TNF-α.
Materials: C57BL/6 mice (6-8 week old) are purchased from Shanghai Laboratory Animal Center (SLAC). Animals are kept, with sufficient water and standard diets, in the Laboratory Animal Center (clean room) in the Institute of Biochemistry and Cell Biology at the Shanghai Institute for Biological Sciences, Chinese Academy of Sciences.
Lipopolysaccharides (LPS) was purchased from Sigma (St. Louis, Mo.) was dissolved in sterile physiological saline and aliquots are stored at −70° C. (The LPS used in the cell testing has a catalog No. L4391, and used in animal testing has a catalog No. L3129.)
Cytokine (TNF-alpha) ELISA test kit (Catalog No. MTA00) was purchased from R&D Co.
Steps: (1) 6-8 week old male C57BL/6 mice are randomly grouped in 5 mice per group for use in endotoxin model tests;
(2) weigh each mouse, and inject peritoneally 200 μL different concentrations of small molecule Compound 1 in physiological saline (the injection doses for the low, medium, and high groups are respectively 25 mg/Kg, 50 mg/Kg, and 100 mg/Kg body weight). The control group was injected with 200 μL physiological saline; […]

Question: Which results are given for `COC1=CC2[C@@H]3[C@H](Sc4ccccc4)c4ccc(O)c(O)c4[C@]2(CCN3C)CC1=O` (stereo partly drawn) [Compound 4]?
Answer: inhibition rate (IR) of TNF-α / anti-inflammatory activity (FIG. 1) [1]: apparent activities; melting point: 210 to 212 °C (dec.)

Question: What does the source list for `COC1=CC2[C@@H]3[C@H](Sc4ccc(C(C)(C)C)cc4)c4ccc(O)c(O)c4[C@]2(CCN3C)CC1=O` (stereo partly drawn) [Compound 8]?
Answer: inhibition rate (IR) of TNF-α / anti-inflammatory activity (FIG. 1) [1]: apparent activities; melting point: 232 to 233 °C (dec.)

Question: Which “inhibition rate (IR) of TNF-α / anti-inflammatory activity (FIG. 1)” value [1] does the source give for `COC1=C[C@@H]2[C@@H]3[C@H](Sc4ccc(C)cc4)c4ccc(O)c(O)c4[C@]2(CCN3C)CC1=O` [Compound 1] here?
Answer: The value was “apparent activities”.

Question: What about the “effect on pro-inflammatory cytokine TNF-α level in plasma (FIG. 3)” value [2] of the same compound?
Answer: The value was “substantial inhibitory effect; also recorded: dose dependent”.

Question: What about the melting point of the same compound?
Answer: Its melting point is 224 to 225 °C (dec.).

Question: Which “inhibition rate (IR) of TNF-α / anti-inflammatory activity (FIG. 1)” value ([1]; 10 µM) does the source give for `COC1=CC2[C@@H]3[C@H](OC(C)=O)c4c(CO)cc(OC)c(O)c4[C@]2(CCN3C)CC1=O` (stereo partly drawn) [Compound 34, 1-hydroxymethyl-10β-acetoxysinomenine] here?
Answer: Its value is “TNF-α stimulating effects; also recorded: TNF-α stimulatory activities”.

Question: Which “inhibition rate (IR) of TNF-α / anti-inflammatory activity (FIG. 1)” value ([1]; 10 µM) does the source give for `COC1=CC2[C@@H]3[C@H](OC)c4c(CO)cc(OC)c(O)c4[C@]2(CCN3C)CC1=O` (stereo partly drawn) [Compound 35, 1-hydroxymethyl-10β-methoxysinomenine] here?
Answer: The value was “TNF-α stimulating effects; also recorded: TNF-α stimulatory activities”.

Question: For `COC1=CC2[C@@H]3C(=O)c4ccc(OC)c(OC(C)=O)c4[C@]2(CCN3C)C[C@H]1O` (stereo partly drawn) [Compound 40], which “inhibition rate (IR) of TNF-α / anti-inflammatory activity (FIG. 1)” value [1] is on record?
Answer: The value was “apparent activities”.

Question: For `COC1=CC2[C@@H]3C(=O)c4ccc(OC)c(OC(C)=O)c4[C@]2(CCN3C)C[C@@H]1O` (stereo partly drawn) [Compound 39], which “inhibition rate (IR) of TNF-α / anti-inflammatory activity (FIG. 1)” value [1] is on record?
Answer: Its value is “apparent activities”.

Question: With `COC1=CC2[C@@H]3[C@H](OC(C)=O)c4ccc(OC(C)=O)c(OC(C)=O)c4[C@]2(CCN3C)CC1=O` (stereo partly drawn) [Compound 31] as the compound, how does the “inhibition rate (IR) of TNF-α / anti-inflammatory activity (FIG. 1)” value [1] read?
Answer: The value was “apparent activities”.

Question: And the melting point?
Answer: Its melting point is 198 to 199 °C.

Question: With `COC1=CC2[C@@H]3[C@H](OC)c4ccc(OC)c(O)c4[C@]2(CCN3C)CC1=O` (stereo partly drawn) [Compound 33, 10β-methoxysinomenine] as the compound, how does the “inhibition rate (IR) of TNF-α / anti-inflammatory activity (FIG. 1)” value ([1]; 10 µM) read?
Answer: The value was “TNF-α stimulating effects; also recorded: TNF-α stimulatory activities”.

Question: What about the melting point of the same compound?
Answer: The melting point was 201 to 203 °C (dec.).

Reference: patent US8557837B2, “Sinomenine derivatives, synthetic methods and uses thereof” (Shanghai Institute of Organic Chemistry, Chinese Academy of …, priority 2010, dated 2013)
